The values below come from patent publication US20230159510A1, “NOVEL PRMT5 INHIBITORS” (AMGEN INC., priority 2020, published 2023).

Structures are written as SMILES. Read-outs that look alike come from different tables or passages of the source. Where only a bound is given, the exact number is not on record here.

For one assay, the system named is HCT116 MTAP null cells. The assay can be described thus: HCT116 proliferation assay, MTAP null cells (CellTiter-Glo, 6 days). The note with it: read-out: Protif_ HCT116-MTAP null IC50. The format is cell-based. Put shortly:
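Cells grown in RPMI 1640 + 10% FBS, plated overnight, then exposed for 6 days to 8- or 9-point 1:3 compound dilutions (top 1 or 10 µM) with DMSO control. Viability read by CellTiter-Glo luminescence.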
Background: ATP-based viability assays read luminescence as a measure of living cells.

The next assay concerns the target PRMT5/MEP50 (Homo sapiens, UniProt O14744). The assay can be described thus: MTase-Glo methyl transferase assay, Method B (FL-Histone H2A, 1 µM MTA, 1 h pre-incubation). The format is biochemical. Also noted: purchased Reaction Biology Corp RD-11-292. The note with it: read-out: PRMT5 MTase Glo Ki (nM, Meth. B). The protocol:
Method B: The PRMT5 inhibitory activity of test compounds was determined using the MTase-Glo™ assay (Promega), which monitors the product (S-adenosyl homocysteine or SAH) of methyltransferase reactions. The PRMT5 MTase-Glo assay was conducted in a 384-well white ProxiPlate (PerkinElmer) in a total volume of 16 µL. The PRMT5 enzymatic reaction (in 8 µL) contained 4 nM PRMT5/MEP50 (Reaction Biology Corp, catalog no.: RD-11-292), 5 µM S-adenosyl methionine (SAM, Promega), 2.5 µM FL-Histone H2A (BPS Bioscience, catalog no.: 52021), 1 µM 5′-methylthioadenosine (MTA, Sigma) and ½ log serially diluted compounds in a reaction buffer of 50 mM Tris (pH 8.0), 50 mM NaCl, 0.01% Tween 20, 0.01% BSA, and 1 mM TCEP. Test compounds were pre-incubated with PRMT5/MEP50, SAM, and MTA for 1 hour before addition of FL-Histone H2A to initiate the PRMT5 reaction. The reaction was allowed to proceed for 20 hours at room temperature and was then terminated by addition of 1 µL of 9X MTase-Glo™ Reagent (Promega). After a 30-minute incubation at room temperature, 8 µL of MTase-Glo™ Detection Solution (Promega) was added and the plate was incubated at room temperature for an additional 30 minutes. The light signal corresponding to the amount of SAH produced by the PRMT5 reaction was subsequently measured using an Envision multimode reader (PerkinElmer). IC50 and KI values were obtained by analyzing dose-response curves using GraphPad Prism®.

Sequence of PRMT5/MEP50 (O14744 2-637 limits assumed): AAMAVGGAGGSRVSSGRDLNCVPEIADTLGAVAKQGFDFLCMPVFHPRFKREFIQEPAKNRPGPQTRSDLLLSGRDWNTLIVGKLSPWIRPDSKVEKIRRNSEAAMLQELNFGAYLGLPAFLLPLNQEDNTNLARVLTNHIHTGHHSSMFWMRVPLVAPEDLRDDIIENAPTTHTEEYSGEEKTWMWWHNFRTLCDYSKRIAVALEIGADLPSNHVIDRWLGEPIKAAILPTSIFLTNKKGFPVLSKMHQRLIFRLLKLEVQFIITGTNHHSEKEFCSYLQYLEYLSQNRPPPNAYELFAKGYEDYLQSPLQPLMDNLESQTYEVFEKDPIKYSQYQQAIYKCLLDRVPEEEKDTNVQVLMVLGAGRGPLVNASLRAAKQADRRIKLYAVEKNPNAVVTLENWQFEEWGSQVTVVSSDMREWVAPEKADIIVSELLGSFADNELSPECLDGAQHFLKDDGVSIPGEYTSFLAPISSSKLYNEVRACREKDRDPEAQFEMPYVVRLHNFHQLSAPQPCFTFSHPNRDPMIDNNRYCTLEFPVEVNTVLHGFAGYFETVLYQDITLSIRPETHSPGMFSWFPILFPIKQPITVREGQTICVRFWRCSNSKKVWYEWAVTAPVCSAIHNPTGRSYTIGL
Sequence of PRMT5/MEP50 (Q9BQA1 2-342 partner limits assumed): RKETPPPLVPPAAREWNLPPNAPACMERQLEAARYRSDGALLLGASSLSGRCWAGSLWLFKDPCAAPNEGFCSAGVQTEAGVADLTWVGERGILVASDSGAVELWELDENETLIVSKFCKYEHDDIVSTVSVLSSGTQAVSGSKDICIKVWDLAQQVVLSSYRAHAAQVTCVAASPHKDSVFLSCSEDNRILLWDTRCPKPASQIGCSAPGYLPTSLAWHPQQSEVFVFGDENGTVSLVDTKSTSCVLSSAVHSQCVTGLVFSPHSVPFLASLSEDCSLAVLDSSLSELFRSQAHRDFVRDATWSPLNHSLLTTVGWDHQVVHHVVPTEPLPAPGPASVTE

`Cc1cc2cc(C(=O)N(Cc3ccc(C(F)(F)F)cn3)C(C)CC#N)ccc2nc1N` (stereo not drawn) [Example 693, 2-amino-N-(2-cyano-1-methyl-ethyl)-3-methyl-N-[[5-(trifluoromethyl)-2-pyridyl]methyl] quinoline-6-carboxamide]: the half-maximal inhibitory concentration (IC50) with HCT116 MTAP null cells (HCT116-MTAP null, 144 h) worked out at 97 nM. On PRMT5/MEP50, the Ki is 6.14 nM.
For `Cc1cc2cc(C(=O)N(Cc3ccc(C(F)(F)F)cn3)Cc3ccccc3-n3ccnc3)ccc2nc1N` [Example 653, 2-amino-N-[(2-imidazol-1-ylphenyl)methyl]-3-methyl-N-[[5-(trifluoromethyl)-2-pyridyl]methyl] quinoline-6-carboxamide], in that order: 280 nM and 2.79 nM.
For `Cc1cc2cc(C(=O)N(Cc3ccc(O)cc3)Cc3ccc(C(F)(F)F)cn3)ccc2nc1N` [Example 661, 2-amino-N-[(4-hydroxyphenyl)methyl]-3-methyl-N-[[5-(trifluoromethyl)-2-pyridyl]methyl] quinoline-6-carboxamide], in that order: 69 nM and 1.81 nM.
For `Cc1cc2cc(C(=O)N(Cc3ccccc3O)Cc3ccnc4[nH]ccc34)ccc2nc1N` [Example 690, 2-amino-N-[(2-hydroxyphenyl)methyl]-3-methyl-N-(1H-pyrrolo[2,3-b]pyridin-4-ylmethyl)quinoline-6-carboxamide], in that order: 94 nM and 1.68 nM.
With `Cc1cc2cc(C(=O)N(Cc3ccc(C(F)(F)F)cn3)Cc3ccnc4[nH]ccc34)cnc2nc1N` [Example 635, 7-amino-6-methyl-N-(1H-pyrrolo[2,3-b]pyridin-4-ylmethyl)-N-[[5-(trifluoromethyl)-2-pyridyl]methyl]-1,8-naphthyridine-3-carboxamide], the IC50 with HCT116 MTAP null cells was found to be 18 nM. Further, the Ki on PRMT5/MEP50 worked out at 1.29 nM.
As for `Cc1cc2cc(C(=O)N(Cc3ccc(C(F)(F)F)cn3)C(C)CC(C)C)ccc2nc1N` (stereo not drawn) [Example 634, 2-amino-N-(1,3-dimethylbutyl)-3-methyl-N-[[5-(trifluoromethyl)-2-pyridyl]methyl] quinoline-6-carboxamide], the half-inhibitory concentration (IC50) with HCT116 MTAP null cells (HCT116-MTAP null, 144 h) was found to be 930 nM. Moreover, the Ki at PRMT5/MEP50 amounted to 6.84 nM.
With `Cc1cc2cc(C(=O)N(Cc3ccc(C(F)(F)F)cn3)Cc3cccnc3-n3cncn3)ccc2nc1N` [Example 652, 2-amino-3-methyl-N-[[2-(1,2,4-triazol-1-yl)-3-pyridyl]methyl]-N-[[5-(trifluoromethyl)-2-pyridyl]methyl] quinoline-6-carboxamide], the 50% inhibitory concentration (IC50) in the assay with HCT116 MTAP null cells (HCT116-MTAP null, 144 h) is 160 nM. Besides, the Ki on PRMT5/MEP50 fell in the range of 3 to 7 nM.
For `C#CC(C)N(Cc1ccc(C(F)(F)F)cn1)C(=O)c1ccc2nc(N)c(C)cc2c1` (stereo not drawn) [Example 656, 2-amino-3-methyl-N-(1-methylprop-2-ynyl)-N-[[5-(trifluoromethyl)-2-pyridyl]methyl] quinoline-6-carboxamide], in that order: 210 nM and 5.28 nM.
In the case of `Cc1cc2cc(C(=O)N(Cc3ccc(C(F)(F)F)cn3)C3CC(C#N)C3)ccc2nc1N` (stereo not drawn) [Example 697, 2-amino-N-(3-cyanocyclobutyl)-3-methyl-N-[[5-(trifluoromethyl)-2-pyridyl]methyl] quinoline-6-carboxamide], at PRMT5/MEP50, the inhibition constant Ki was 36.5 nM.
In the case of `Cc1cc2cc(C(=O)N(Cc3ccc(C(F)(F)F)cn3)C3CCc4[nH]cnc4C3)ccc2nc1N` (stereo not drawn) [Example 670, 2-amino-3-methyl-N-(4,5,6,7-tetrahydro-1H-benzimidazol-5-yl)-N-[[5-(trifluoromethyl)-2-pyridyl]methyl] quinoline-6-carboxamide], the 50% inhibitory concentration (IC50) in the assay on HCT116 MTAP null cells (HCT116-MTAP null, 144 h) was 860 nM. Besides, on PRMT5/MEP50, the inhibitory constant (Ki) stood at 5.15 nM.
For `C#CCCN(Cc1ccc(C(F)(F)F)cn1)C(=O)c1ccc2nc(N)c(C)cc2c1` [Example 659, 2-amino-N-but-3-ynyl-3-methyl-N-[[5-(trifluoromethyl)-2-pyridyl]methyl] quinoline-6-carboxamide], in that order: 251 nM and 4.33 nM.
With `Cc1cc2cc(C(=O)N(Cc3ccc(C(N)=O)nc3)Cc3ccc(C(F)(F)F)cn3)ccc2nc1N` [Example 637, 2-amino-N-[(6-carbamoyl-3-pyridyl)methyl]-3-methyl-N-[[5-(trifluoromethyl)-2-pyridyl]methyl] quinoline-6-carboxamide], the IC50 in the assay on HCT116 MTAP null cells (HCT116-MTAP null, 144 h) is greater than 1000 nM. For the same molecule, at PRMT5/MEP50, the inhibition constant Ki worked out at 5.2 nM.
In the case of `Cc1cc2cc(C(=O)N(Cc3ccc(N4CCCC4)cc3)CC(C)C)ccc2nc1N` [Example 643, 2-amino-N-isobutyl-3-methyl-N-[(4-pyrrolidin-1-ylphenyl)methyl]quinoline-6-carboxamide], the inhibition constant Ki on PRMT5/MEP50 amounted to 39.6 nM.
Regarding `Cc1cc2cc(C(=O)N(Cc3ccc(C(F)(F)F)cc3)Cc3c(F)cncc3F)ccc2nc1N` [Example 685, 2-amino-N-[(3,5-difluoro-4-pyridyl)methyl]-3-methyl-N-[[4-(trifluoromethyl)phenyl]methyl] quino line-6-carboxamide], the half-maximal inhibitory concentration (IC50) in the assay with HCT116 MTAP null cells came out at 51 nM. The inhibition constant Ki at PRMT5/MEP50 was 1.22 nM.
On to `Cc1cc2cc(C(=O)N(Cc3ccnc4[nH]ccc34)Cc3ccnn3C)ccc2nc1N` [Example 687, 2-amino-3-methyl-N-[(2-methylpyrazol-3-yl)methy1] -N-(1 H-pyrrolo [2,3-b]pyridin-4-ylmethyl)quinoline-6-carboxamide], for which, in the assay with HCT116 MTAP null cells (HCT116-MTAP null, 144 h), the IC50 was 110 nM. Moreover, the Ki at PRMT5/MEP50 amounted to 1.56 nM.
With `Cc1cc2cc(C(=O)N(Cc3ccc(C(F)(F)F)cn3)C(C)c3cc[nH]c(=O)c3)ccc2nc1N` (stereo not drawn) [Example 664, 2-amino-3-methyl-N-[1-(2-oxo-1H-pyridin-4-yl)ethyl]-N-[[5-(trifluoromethyl)-2-pyridyl]methyl] quinoline-6-carboxamide], the 50% inhibitory concentration (IC50) with HCT116 MTAP null cells (HCT116-MTAP null, 144 h) turned out to be 670 nM. The Ki at PRMT5/MEP50 was determined as 9.1 nM.
For `Cc1cc2cc(C(=O)N(Cc3cccc(-n4ccnn4)c3)Cc3ccc(C(F)(F)F)cn3)ccc2nc1N` [Example 651, 2-amino-3-methyl-N-[[3-(triazol-1-yl)phenyl]methyl] -N-[ [5-(trifluoromethyl)-2-pyridyl]methyl] quinoline-6-carboxamide], in that order: 310 nM and 3 to 9 nM.
With `Cc1cc2cc(C(=O)N(Cc3ccc(C(F)(F)F)cn3)C(CC(N)=O)C3CCOCC3)ccc2nc1N` (stereo not drawn) [Example 682, 2-amino-N-(3-amino-3-oxo-1-tetrahydropyran-4-yl-propyl)-3-methyl-N-[[5-(trifluoromethyl)-2-pyridyl]methyl] quinoline-6-carboxamide], the inhibitory constant (Ki) on PRMT5/MEP50 was determined as 23 nM.
Turning to `CCn1ncc2c1CCCC2N(Cc1ccc(C(F)(F)F)cn1)C(=O)c1ccc2nc(N)c(C)cc2c1` (stereo not drawn) [Example 673, 2-amino-N-(1-ethy1-4,5,6,7-tetrahydroindazol-4-yl)-3-methyl-N-[[5-(trifluoromethyl)-2-pyridyl]methyl] quinoline-6-carboxamide], the IC50 with HCT116 MTAP null cells (HCT116-MTAP null, 144 h) was determined as 95 nM. Besides, on PRMT5/MEP50, the inhibitory constant (Ki) was found to be 5.32 nM.
As to `Cc1cc2cc(C(=O)N(Cc3ccc(C(F)(F)F)cn3)C3CC3(C)C)ccc2nc1N` (stereo not drawn) [Example 706, 2-amino-N-(2,2-dimethylcyclopropyl)-3-methyl-N-[[5-(trifluoromethyl)-2-pyridyl]methyl] quinoline-6-carboxamide], the inhibition constant (Ki) on PRMT5/MEP50 turned out to be 31 nM.
In the case of `Cc1cc2cc(C(=O)N(Cc3ccc(C(F)(F)F)cn3)C3CCc4cn[nH]c4C3)ccc2nc1N` (stereo not drawn) [Example 671, 2-amino-3-methyl-N-(4,5,6,7-tetrahydro-1 H-indazol-6-yl)-N-[[5-(trifluoromethyl)-2-pyridyl]methyl] quinoline-6-carboxamide], the IC50 with HCT116 MTAP null cells (HCT116-MTAP null, 144 h) worked out at 180 nM. In addition, on PRMT5/MEP50, the Ki was 6.82 nM.
In the case of `Cc1cc2cc(C(=O)N(Cc3ccc(C(F)(F)F)cn3)C3CC4(C3)CC(F)(F)C4)ccc2nc1N` [Example 698, 2-amino-N-(2,2-difluorospiro [3.3]heptan-6-yl)-3-methyl-N-[[5-(trifluoromethyl)-2-pyridyl]methyl] quinoline-6-carboxamide], at PRMT5/MEP50, the inhibition constant Ki was 36.4 nM.
As for `Cc1cc2cc(C(=O)N(Cc3cccc(-n4cncn4)c3)CC(C)C)ccc2nc1N` [Example 644, 2-amino-N-isobutyl-3-methyl-N-[[3-(1,2,4-triazol-1-yl)phenyl]methyl] quinoline-6-carboxamide], the inhibition constant (Ki) on PRMT5/MEP50 is 29.3 nM.
Take `Cc1cc2cc(C(=O)N(Cc3ccc(C(F)(F)F)cn3)C(C)C(C)n3cccn3)ccc2nc1N` (stereo not drawn) [Example 679, 2-amino-3-methyl-N-(1-methyl-2-pyrazol-1-yl-propyl)-N-[[5-(trifluoromethyl)-2-pyridyl]methyl] quinoline-6-carboxamide]: the Ki on PRMT5/MEP50 is 36.8 nM.
Still for that read-out and setting: the result for `Cc1cc2cc(C(=O)N(CC#CCO)Cc3ccc(C(F)(F)F)cn3)ccc2nc1N` [Example 658, 2-amino-N-(4-hydroxybut-2-ynyl)-3-methyl-N-[[5-(trifluoromethyl)-2-pyridyl]methyl] quinoline-6-carboxamide] reads 12.6 nM.

Broadly, the IC50 is the concentration that inhibits the measured activity by half. The term Ki denotes a measure of affinity in units of concentration, obtained from inhibition or displacement.
